One may read the IC50 as the concentration at which inhibition is half-maximal. For orientation: EC50 means the concentration needed to bring the measured effect to its halfway point.

In experiment [1] the target is T1, Keap1 Kelch domain (321-609) / TAMRA-labeled 16mer NRF2 peptide (ETGE motif) (Homo sapiens, UniProt Q14145).
T1 construct: the Kelch domain (321-609) of Keap1 is used
The experiment can be described thus: NRF2-Keap1 FP Assay (Keap1 Kelch fluorescence polarization). Type of experiment: binding. The conditions noted are these: 20 nM Keap1 (321-609), 8 nM Tamra labeled peptide. Summed up: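 Compound dilutions (3-fold) were incubated 1 hr at room temperature with 20 nM Keap1 Kelch (321-609) and 8 nM TAMRA-labeled ETGE 16mer peptide. Buffer was 50 mM Tris pH 8.0, 100 mM NaCl, 5 mM MgCl2, 1 mM DTT, 2 mM CHAPS, 0.005% BSA. Fluorescence polarization (mP) was normalized to controls and fitted with a four-parameter equation to give pIC50.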
In general terms: Fluorescence polarisation rises when a labelled molecule tumbles more slowly, as on binding a larger partner.

Experiment [2] relates to NQO1 specific enzyme activity in BEAS-2B cells (marker for NRF2 activation). Description: BEAS-2B NQO1 MTT Assay. Type of experiment: cell-based. The conditions noted are these: Homo sapiens, compound incubated 48 hours, read-out: EC50 (NQO1 specific enzyme activity induction). Summed up: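 BEAS-2B cells treated with compound for 48 h at 37 °C, then lysed; NQO1 activity in lysates measured kinetically by MTT reduction at A570 over 30 min. pEC50 from 3-parameter fit of ΔOD/min versus log concentration; lysate also taken for Cell Titer Glo.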

Like-named read-outs stand apart in the source and are kept apart here.

T1 sequence (Q14145 321-609): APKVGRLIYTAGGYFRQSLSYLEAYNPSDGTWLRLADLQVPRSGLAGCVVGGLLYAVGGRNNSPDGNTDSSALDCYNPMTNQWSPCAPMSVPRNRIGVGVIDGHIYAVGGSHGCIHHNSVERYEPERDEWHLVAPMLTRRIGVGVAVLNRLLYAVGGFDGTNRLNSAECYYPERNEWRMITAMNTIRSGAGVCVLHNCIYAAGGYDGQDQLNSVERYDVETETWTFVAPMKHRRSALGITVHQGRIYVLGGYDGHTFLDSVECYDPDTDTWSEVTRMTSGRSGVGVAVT

In turn, `COC(c1cccc(-c2cccc(-n3ncc(C(=O)O)c3C3CC3c3cn(C)nn3)c2)c1)C1CCCC1` (stereo not drawn) [Example 183, 1-(3′-(Cyclopentyl(methoxy)methyl)-[1,1′-biphenyl]-3-yl)-5-(2-(1-methyl-1H-1,2,3-triazol-4-yl)cyclopropyl)-1H-pyrazole-4-carboxylic acid] came in with an IC50 in experiment [1] of 10 to 100 nM. In addition, the 50% effective concentration (EC50) in experiment [2] fell in the range of 100 to 1000 nM.

As for `Cc1nn(-c2cccc(-c3cccc(OCC4CCCCC4)c3)c2)c(C2CC2c2cn(C)nn2)c1C(=O)O` (stereo not drawn) [Example 188, 1-(3′-(cyclohexylmethoxy)-[1,1′-biphenyl]-3-yl)-3-methyl-5-(2-(1-methyl-1H-1,2,3-triazol-4-yl)cyclopropyl)-1H-pyrazole-4-carboxylic Acid], the IC50 in experiment [1] lay in the range of 100 to 1000 nM. The concentration giving a half-maximal response (EC50) in experiment [2] lay in the range of 100 to 1000 nM.

In experiment [1], `CCC[C@@H]1CCCCN1C(=O)c1cccc(-c2cccc(-n3ncc(C(=O)O)c3C3CC3c3cn(C)nn3)n2)c1` (stereo partly drawn) [Example 196, 5-(2-(1-Methyl-1H-1,2,3-triazol-4-yl)cyclopropyl)-1-(6-(3-((R)-2-propylpiperidine-1-carbonyl)phenyl)pyridin-2-yl)-1H-pyrazole-4-carboxylic Acid] yielded an IC50 of 10 to 100 nM. Further, the EC50 in experiment [2] (BEAS-2B, 48 h) was 100 to 1000 nM.

For the compound `CCC[C@@H]1CCCCN1C(=O)c1cncc(-c2cccc(-n3ncc(C(=O)O)c3C3CC3c3cn(C)nn3)c2)c1` (stereo partly drawn) [Example 197, 5-(2-(1-Methyl-1H-1,2,3-triazol-4-yl)cyclopropyl)-1-(3-(5-((R)-2-propylpiperidine-1-carbonyl)pyridin-3-yl)phenyl)-1H-pyrazole-4-carboxylic acid], the IC50 in experiment [1] was in the range of 10 to 100 nM. Besides, the EC50 in experiment [2] (BEAS-2B, 48 h) fell in the range of 1000 to 10000 nM.

In turn, `CCC[C@@H]1CCCCN1C(=O)c1cccc(-c2cccc(-n3nc(C)c(C(=O)O)c3C3CC3c3cn(C)nn3)c2)c1` (stereo partly drawn) [Example 202, 3-Methyl-5-(2-(1-methyl-1H-1,2,3-triazol-4-yl)cyclopropyl)-1-(3′-((R)-2-propylpiperidine-1-carbonyl)-[1,1′-biphenyl]-3-yl)-1H-pyrazole-4-carboxylic acid] gave a half-inhibitory concentration (IC50) in experiment [1] of 10 to 100 nM. The 50% effective concentration (EC50) in experiment [2] (BEAS-2B, 48 h) was in the range of 100 to 1000 nM.

On to `CC1(C)CCc2cnn(-c3cccc(-c4cccc(-n5ncc(C(=O)O)c5C(F)(F)F)n4)c3)c21` [Example 204, 1-(6-(3-(6,6-Dimethyl-5,6-dihydrocyclopenta[c]pyrazol-1(4H)-yl)phenyl)pyridin-2-yl)-5-(trifluoromethyl)-1H-pyrazole-4-carboxylic Acid], for which the concentration for half-maximal inhibition (IC50) in experiment [1] lay within 100 to 1000 nM. Moreover, the half-maximal effective concentration (EC50) in experiment [2] was 100 to 1000 nM.

`CCCC1(C)CCc2cnn(-c3cccc(-c4cccc(-n5ncc(C(=O)O)c5C5CC5)c4)c3)c21` (stereo not drawn) [Example 205, 5-Cyclopropyl-1-(3′-(6-methyl-6-propyl-5,6-dihydrocyclopenta[c]pyrazol-1(4H)-yl)-[1,1′-biphenyl]-3-yl)-1H-pyrazole-4-carboxylic Acid] came in with a concentration for half-maximal inhibition (IC50) in experiment [1] of 100 to 1000 nM. In addition, the EC50 in experiment [2] fell in the range of 100 to 1000 nM.

On to `CCCCC1CCc2cnn(-c3cccc(-c4cccc(-n5ncc(C(=O)O)c5C5CC5)c4)c3)c21` (stereo not drawn) [Example 206, 1-(3′-(6-Butyl-5,6-dihydrocyclopenta[c]pyrazol-1(4H)-yl)-[1,1′-biphenyl]-3-yl)-5-cyclopropyl-1H-pyrazole-4-carboxylic Acid], for which the IC50 in experiment [1] fell in the range of 100 to 1000 nM. Besides, in experiment [2], the EC50 was in the range of 100 to 1000 nM.

Regarding `CCc1nc(-c2cccc(-c3cccc(-n4ncc(C(=O)O)c4C4CC4)c3)c2)no1` [Example 209, 5-Cyclopropyl-1-(3′-(5-ethyl-1,2,4-oxadiazol-3-yl)-[1,1′-biphenyl]-3-yl)-1H-pyrazole-4-carboxylic Acid], the IC50 in experiment [1] fell in the range of 1000 to 10000 nM. In addition, in experiment [2], the EC50 lay in the range of 1000 to 10000 nM.

As for `Cc1nnc(-c2cccc(-c3cccc(-n4ncc(C(=O)O)c4C4CC4)c3)c2)o1` [Example 210, 5S-Cyclopropyl-1-(3′-(5-methyl-1,3,4-oxadiazol-2-yl)-[1,1′-biphenyl]-3-yl)-1H-pyrazole-4-carboxylic acid], the IC50 in experiment [1] was greater than 10000 nM. Moreover, the EC50 in experiment [2] was in the range of 100 to 1000 nM.

`Cn1cc(C2CC2c2c(C(=O)O)cnn2-c2cccc(-c3cccc(-n4ncc5c4C(C)(C)CC5)c3)c2)nn1` (stereo not drawn) [Example 212, 1-(3′-(6,6-Dimethyl-5,6-dihydrocyclopenta[c]pyrazol-1(4H)-yl)-[1,1′-biphenyl]-3-yl)-5-(2-(1-methyl-1H-1,2,3-triazol-4-yl)cyclopropyl)-1H-pyrazole-4-carboxylic Acid] returned an IC50 in experiment [1] of 10 to 100 nM. For the same compound, the EC50 in experiment [2] fell in the range of 100 to 1000 nM.

The compound `CCC[C@@H]1CCCCN1C(=O)c1cccc(-c2cccc(-n3ncc(C(=O)O)c3C3CC3c3cnn(C)c3)c2)c1` (stereo partly drawn) [Example 213, 5-(2-(1-Methyl-1H-pyrazol-4-yl)cyclopropyl)-1-(3′-((R)-2-propylpiperidine-1-carbonyl)-[1,1′-biphenyl]-3-yl)-1H-pyrazole-4-carboxylic Acid] gave an IC50 in experiment [1] of 10 to 100 nM. The EC50 in experiment [2] (BEAS-2B, 48 h) lay within 100 to 1000 nM.

Compound `CCC[C@@H]1CCCCN1C(=O)c1cccc(-c2cccc(-n3ncc(C(=O)O)c3C3CC3c3cnn(C)c3)c2)c1F` (stereo partly drawn) [Example 214, 1-(2′-Fluoro-3′-((R)-2-propylpiperidine-1-carbonyl)-[1,1′-biphenyl]-3-yl)-5-(2-(1-methyl-1H-pyrazol-4-yl)cyclopropyl)-1H-pyrazole-4-carboxylic Acid] showed an IC50 in experiment [1] of 10 to 100 nM. Besides, in experiment [2] (BEAS-2B, 48 h), the concentration for a half-maximal effect (EC50) fell in the range of 100 to 1000 nM.

With `Cn1cc(C2CC2c2c(C(=O)O)cnn2-c2cccc(-c3cccc(C(=O)CC4CCCCC4)c3)c2)nn1` (stereo not drawn) [Example 215, 1-(3′-(2-Cyclohexylacetyl)-[1,1′-biphenyl]-3-yl)-5-(2-(1-methyl-1H-1,2,3-triazol-4-yl)cyclopropyl)-1H-pyrazole-4-carboxylic Acid], in experiment [1], the IC50 was 10 to 100 nM. The concentration for a half-maximal effect (EC50) in experiment [2] lay within 100 to 1000 nM.

`COC(CC1CCCCC1)c1cccc(-c2cccc(-n3ncc(C(=O)O)c3C3CC3c3cn(C)nn3)c2)c1` (stereo not drawn) [Example 216, 1-(3′-(2-Cyclohexyl-1-methoxyethyl)-[1,1′-biphenyl]-3-yl)-5-(2-(1-methyl-1H-1,2,3-triazol-4-yl)cyclopropyl)-1H-pyrazole-4-carboxylic Acid] gave an IC50 in experiment [1] of 10 to 100 nM. The 50% effective concentration (EC50) in experiment [2] lay within 10 to 100 nM.

`Cn1cc(C2CC2c2c(C(=O)O)cnn2-c2cccc(-c3cccc(C(O)CC4CCCCC4)c3)c2)nn1` (stereo not drawn) [Example 217, 1-(3′-(2-Cyclohexyl-1-hydroxyethyl)-[1,1′-biphenyl]-3-yl)-5-(2-(1-methyl-1H-1,2,3-triazol-4-yl)cyclopropyl)-1H-pyrazole-4-carboxylic acid]: in experiment [1], the 50% inhibitory concentration (IC50) is 100 to 1000 nM. In experiment [2], the EC50 lay within 100 to 1000 nM.

In the case of `CC(CC1CCCCC1)Oc1cccc(-c2cccc(-n3ncc(C(=O)O)c3C3CC3c3cn(C)nn3)c2)c1` (stereo not drawn) [Example 218, 1-(3′-((1-Cyclohexylpropan-2-yl)oxy)-[1,1′-biphenyl]-3-yl)-5-(2-(1-methyl-1H-1,2,3-triazol-4-yl)cyclopropyl)-1H-pyrazole-4-carboxylic Acid], the concentration for half-maximal inhibition (IC50) in experiment [1] was in the range of 10 to 100 nM. Besides, the EC50 in experiment [2] lay within 10 to 100 nM.

On to `CC(Oc1cccc(-c2cccc(-n3ncc(C(=O)O)c3C3CC3c3cn(C)nn3)c2)c1)C1CCCCC1` (stereo not drawn) [Example 219, 1-(3′-(1-Cyclohexylethoxy)-[1,1′-biphenyl]-3-yl)-5-(2-(1-methyl-1H-1,2,3-triazol-4-yl)cyclopropyl)-1H-pyrazole-4-carboxylic acid], for which, in experiment [1], the 50% inhibitory concentration (IC50) is 10 to 100 nM. In experiment [2] (BEAS-2B, 48 h), the concentration for a half-maximal effect (EC50) was 10 to 100 nM.

In the case of `Cn1cc(C2CC2c2c(C(=O)O)cnn2-c2cccc(-c3cccc(OCc4ccccc4)c3)c2)nn1` (stereo not drawn) [Example 221], in experiment [1], the concentration for half-maximal inhibition (IC50) was in the range of 100 to 1000 nM. The EC50 in experiment [2] fell in the range of 100 to 1000 nM.

`Cn1cc(C2CC2c2c(C(=O)O)cnn2-c2cccc(-c3cccc(OCc4ccccc4F)c3)c2)nn1` (stereo not drawn) [Example 222, 1-(3′-((2-Fluorobenzyl)oxy)-[1,1′-biphenyl]-3-yl)-5-(2-(1-methyl-1H-1,2,3-triazol-4-yl)cyclopropyl)-1H-pyrazole-4-carboxylic acid] gave an IC50 in experiment [1] of 10 to 100 nM. Moreover, the 50% effective concentration (EC50) in experiment [2] is 100 to 1000 nM.

For the compound `Cn1cc(C2CC2c2c(C(=O)O)cnn2-c2cccc(-c3cccc(OCc4ccc(F)cc4)c3)c2)nn1` (stereo not drawn) [Example 223, 1-(3′-((4-Fluorobenzyl)oxy)-[1,1′-biphenyl]-3-yl)-5-(2-(1-methyl-1H-1,2,3-triazol-4-yl)cyclopropyl)-1H-pyrazole-4-carboxylic acid], the IC50 in experiment [1] fell in the range of 100 to 1000 nM. In addition, in experiment [2], the concentration for a half-maximal effect (EC50) lay within 100 to 1000 nM.

In the case of `Cn1cc(C2CC2c2c(C(=O)O)cnn2-c2cccc(-c3cccc(OCc4cccc(F)c4)c3)c2)nn1` (stereo not drawn) [Example 224, 1-(3′-((3-Fluorobenzyl)oxy)-[1,1′-biphenyl]-3-yl)-5-(2-(1-methyl-1H-1,2,3-triazol-4-yl)cyclopropyl)-1H-pyrazole-4-carboxylic acid], the IC50 in experiment [1] lay within 100 to 1000 nM. Moreover, in experiment [2], the EC50 was in the range of 100 to 1000 nM.

Compound `Cn1cc(C2CC2c2c(C(=O)O)cnn2-c2cccc(-c3cccc(OCCC(C)(C)C)c3)c2)nn1` (stereo not drawn) [Example 225, 1-(3′-(3,3-Dimethylbutoxy)-[1,1′-biphenyl]-3-yl)-5-(2-(1-methyl-1H-1,2,3-triazol-4-yl)cyclopropyl)-1H-pyrazole-4-carboxylic acid] displayed an IC50 in experiment [1] of 10 to 100 nM. For the same compound, in experiment [2], the EC50 was in the range of 10 to 100 nM.

For the compound `CC(Oc1cccc(-c2cccc(-n3ncc(C(=O)O)c3C3CC3c3cn(C)nn3)c2)c1)C1CCOCC1` (stereo not drawn) [Example 227, 5-(2-(1-Methyl-1H-1,2,3-triazol-4-yl)cyclopropyl)-1-(3′-(1-(tetrahydro-2H-pyran-4-yl)ethoxy)-[1,1′-biphenyl]-3-yl)-1H-pyrazole-4-carboxylic Acid], the concentration for half-maximal inhibition (IC50) in experiment [1] is 10 to 100 nM. The concentration giving a half-maximal response (EC50) in experiment [2] lay within 100 to 1000 nM.

The values are drawn from US10364256B2 (GlaxoSmithKline Intellectual Property Development Limited, priority 2015, dated 2019).
